# According to ChEMBL document CHEMBL4043139, “Fluoro and pentafluorothio analogs of the antitumoral curcuminoid EF24 with superior antiangiogenic and vascular-disruptive effects” (Bioorg Med Chem, 2017):
# Activity calls are given as the source filed them. The rule behind the calls is not given here.
# Experiments:
# 518A2 = experiment: Cytotoxicity against human 518A2 cells after 72 hrs by MTT assay; type: functional, cell-based; details: for IC50: 518A2, 72 h
# HT-29 [1] = experiment: Cytotoxicity against human HT-29 cells after 72 hrs by MTT assay; type: functional, cell-based; details: for IC50: HT-29, 72 h
# HCT-116 = experiment: Cytotoxicity against human HCT116 cells after 72 hrs by MTT assay; type: functional, cell-based; details: for IC50: HCT-116, 72 h
# DLD-1 = experiment: Cytotoxicity against human DLD1 cells after 72 hrs by MTT assay; type: functional, cell-based; details: for IC50: DLD-1, 72 h
# PANC-1 = experiment: Cytotoxicity against human PANC1 cells after 72 hrs by MTT assay; type: functional, cell-based; details: for IC50: PANC-1, 72 h
# [2] = (§1) Cytotoxicity against human KB-V1/Vbl cells after 72 hrs by MTT assay; type: functional, cell-based
# KB-V1/Vbl = experiment: as §1; type: functional, cell-based
# [3] = (§2) Cytotoxicity against human MCF7/Topo cells after 72 hrs by MTT assay; type: functional, cell-based
# MCF7/Topo = experiment: as §2; type: functional, cell-based
# HT-29 [4] = experiment: Upregulation of cyclin B1 expression in human HT-29 cells at 2.5 to 5 uM after 24 hrs by Western blot analysis; type: functional, cell-based
# [5] = (§3) Cytotoxicity against human U87 cells after 72 hrs by MTT assay; type: functional, cell-based, U-87MG ATCC; details: U-87 MG
# U-87MG ATCC [6] = experiment: as §3; type: functional, cell-based
# [7] = Cytotoxicity against HDFa after 72 hrs by MTT assay; type: cell-based; details: Homo sapiens
# HT-29 [8] = experiment: Cell cycle arrest in human HT-29 cells assessed as accumulation at sub-G1 phase at 1 uM after 24 hrs by propidium iodide staining based flow cytometric analysis (reference value: 0.9 +/- 0.1%); type: functional
# HT-29 [9] = experiment: Cell cycle arrest in human HT-29 cells assessed as accumulation at sub-G1 phase at 2.5 uM after 24 hrs by propidium iodide staining based flow cytometric analysis (reference value: 0.9 +/- 0.1%); type: functional
# HT-29 [10] = experiment: Cell cycle arrest in human HT-29 cells assessed as accumulation at sub-G1 phase at 5 uM after 24 hrs by propidium iodide staining based flow cytometric analysis (reference value: 0.9 +/- 0.1%); type: functional
# HT-29 [11] = experiment: Cell cycle arrest in human HT-29 cells assessed as accumulation at G1 phase at 1 uM after 24 hrs by propidium iodide staining based flow cytometric analysis (reference value: 68 +/- 0.9%); type: functional
# HT-29 [12] = experiment: Cell cycle arrest in human HT-29 cells assessed as accumulation at G1 phase at 2.5 uM after 24 hrs by propidium iodide staining based flow cytometric analysis (reference value: 68 +/- 0.9%); type: functional
# HT-29 [13] = experiment: Cell cycle arrest in human HT-29 cells assessed as accumulation at G1 phase at 5 uM after 24 hrs by propidium iodide staining based flow cytometric analysis (reference value: 68 +/- 0.9%); type: functional
# HT-29 [14] = experiment: Cell cycle arrest in human HT-29 cells assessed as accumulation at S phase at 1 uM after 24 hrs by propidium iodide staining based flow cytometric analysis (reference value: 15.6 +/- 0.3%); type: functional
# HT-29 [15] = experiment: Cell cycle arrest in human HT-29 cells assessed as accumulation at S phase at 2.5 uM after 24 hrs by propidium iodide staining based flow cytometric analysis (reference value: 15.6 +/- 0.3%); type: functional
# HT-29 [16] = experiment: Cell cycle arrest in human HT-29 cells assessed as accumulation at S phase at 5 uM after 24 hrs by propidium iodide staining based flow cytometric analysis (reference value: 15.6 +/- 0.3%); type: functional
# HT-29 [17] = experiment: Cell cycle arrest in human HT-29 cells assessed as accumulation at G2/M phase at 1 uM after 24 hrs by propidium iodide staining based flow cytometric analysis (reference value: 15.5 +/- 0.5%); type: functional
# HT-29 [18] = experiment: Cell cycle arrest in human HT-29 cells assessed as accumulation at G2/M phase at 2.5 uM after 24 hrs by propidium iodide staining based flow cytometric analysis (reference value: 15.5 +/- 0.5%); type: functional
# HT-29 [19] = experiment: Cell cycle arrest in human HT-29 cells assessed as accumulation at G2/M phase at 5 uM after 24 hrs by propidium iodide staining based flow cytometric analysis (reference value: 15.5 +/- 0.5%); type: functional
# Homo sapiens = species on record: Homo sapiens; experiment: Inhibition of NF-kappaB in human 518A2 cells assessed as reduction in p65 subunit expression at 0.5 to 1 uM after 24 hrs by Western blot analysis; type: cell-based
# Danio rerio = species on record: Danio rerio; experiment: Antiangiogenic activity in 72 hrs post fertilized zebra fish embryo harboring fli1a:EGFP assessed as area of subintestinal veins at 5 uM after 48 hrs by fluorescence microscopic analysis (reference value: 100%); type: functional
# Gallus gallus [20] = experiment: Vascular disruptive activity in 6 days post fertilized chicken egg chorioallantoic/vitelline membrane assessed as degradation of blood vessels at 10 nmol administered topically measured after 6 to 24 hrs by stereo-microscopic analysis; type: functional
# Gallus gallus [21] = experiment: Vascular disruptive activity in 6 days post fertilized chicken egg assessed as area covered by blood vessels at 10 nmol administered topically measured after 6 hrs by light microscopic analysis relative to control; type: functional
# U-87MG ATCC [22] = experiment: Anti-vasculogenic activity in human U87 cells assessed as reduction in formation of cord-like structures at 1.5 uM after 24 hrs by matrigel based light microscopic analysis; type: functional, cell-based
# U-87MG ATCC [23] = experiment: Anti-vasculogenic activity in human U87 cells assessed as reduction in formation of blood-vessel like tubular structures at 1.5 uM after 24 hrs by matrigel based light microscopic analysis; type: functional, cell-based
# [24] = Cytotoxicity against human U87 cells assessed as cell viability at 10 nmol after 24 hrs by MTT assay relative to control; type: cell-based, U-87MG ATCC; details: read-out: Activity
# U-87MG ATCC [25] = experiment: Vascular disruptive activity in human U87 cells assessed as disruption of preformed tubular networks at 1 uM after 24 hrs by matrigel based light microscopic analysis; type: functional, cell-based
# [26] = Cytotoxicity against human U87 cells assessed as effect on cell viability at 1 uM after 24 hrs by MTT assay; type: cell-based; details: u-87mg atcc
smiles,measurement,setting,value
O=C1/C(=C/c2ccccc2F)CNC/C1=C\c1ccccc1F,Activity,518A2,Dose-dependent effect
same,IC50,518A2,1800 nM
same,Activity,HT-29 [1],Dose-dependent effect
same,IC50,HT-29 [1],1600 nM
same,Activity,HCT-116,Dose-dependent effect
same,IC50,HCT-116,1500 nM
same,Activity,DLD-1,Dose-dependent effect
same,IC50,DLD-1,1300 nM
same,Activity,PANC-1,Dose-dependent effect
same,IC50,PANC-1,1500 nM
same,IC50,[2],1100 nM
same,Activity,KB-V1/Vbl,Dose-dependent effect
same,IC50,[3],2200 nM
same,Activity,MCF7/Topo,Dose-dependent effect
same,Activity,HT-29 [4],Active
same,IC50,[5],1400 nM
same,Activity,U-87MG ATCC [6],Dose-dependent effect
same,IC50,[7],8500 nM
same,Activity,HT-29 [8],3.3%
same,Activity,HT-29 [9],12.9%
same,Activity,HT-29 [10],7.1%
same,Activity,HT-29 [11],59.1%
same,Activity,HT-29 [12],38.9%
same,Activity,HT-29 [13],35.8%
same,Activity,HT-29 [14],21%
same,Activity,HT-29 [15],22.3%
same,Activity,HT-29 [16],22.6%
same,Activity,HT-29 [17],16.6%
same,Activity,HT-29 [18],25.9%
same,Activity,HT-29 [19],34.4%
same,inhibition,Homo sapiens,Active
same,Activity,Danio rerio,74%
same,Activity,Gallus gallus [20],Active
same,Activity,Gallus gallus [21],43%
same,Activity,U-87MG ATCC [22],Active
same,Activity,U-87MG ATCC [23],Active
same,"viability at 24 h, 10 nmol",[24],> 85%
same,Activity,U-87MG ATCC [25],Active
same,Activity,[26],Non-Toxic
O=C(/C=C/c1ccc(S(F)(F)(F)(F)F)cc1)/C=C/c1ccc(S(F)(F)(F)(F)F)cc1,Activity,518A2,Dose-dependent effect
same,IC50,518A2,4400 nM
same,Activity,HT-29 [1],Dose-dependent effect
same,IC50,HT-29 [1],1800 nM
same,Activity,HCT-116,Dose-dependent effect
same,IC50,HCT-116,1000 nM
same,Activity,DLD-1,Dose-dependent effect
same,IC50,DLD-1,3200 nM
same,Activity,PANC-1,Dose-dependent effect
same,IC50,PANC-1,3100 nM
same,IC50,[2],3600 nM
same,Activity,KB-V1/Vbl,Dose-dependent effect
same,IC50,[3],3400 nM
same,Activity,MCF7/Topo,Dose-dependent effect
same,IC50,[5],8700 nM
same,Activity,U-87MG ATCC [6],Dose-dependent effect
O=C1/C(=C/c2ccc(S(F)(F)(F)(F)F)cc2)CSC/C1=C\c1ccc(S(F)(F)(F)(F)F)cc1,Activity,518A2,Dose-dependent effect
same,IC50,518A2,850 nM
same,Activity,HT-29 [1],Dose-dependent effect
same,IC50,HT-29 [1],980 nM
same,Activity,HCT-116,Dose-dependent effect
same,IC50,HCT-116,640 nM
same,Activity,DLD-1,Dose-dependent effect
same,IC50,DLD-1,750 nM
same,Activity,PANC-1,Dose-dependent effect
same,IC50,PANC-1,840 nM
same,IC50,[2],570 nM
same,Activity,KB-V1/Vbl,Dose-dependent effect
same,IC50,[3],760 nM
same,Activity,MCF7/Topo,Dose-dependent effect
same,IC50,[5],2100 nM
same,Activity,U-87MG ATCC [6],Dose-dependent effect
O=C1/C(=C/c2ccc(F)c(F)c2)CSC/C1=C\c1ccc(F)c(F)c1,Activity,518A2,Dose-dependent effect
same,IC50,518A2,1500 nM
same,Activity,HT-29 [1],Dose-dependent effect
same,IC50,HT-29 [1],1300 nM
same,Activity,HCT-116,Dose-dependent effect
same,IC50,HCT-116,2000 nM
same,Activity,DLD-1,Dose-dependent effect
same,IC50,DLD-1,1800 nM
same,Activity,PANC-1,Dose-dependent effect
same,IC50,PANC-1,2100 nM
same,IC50,[2],760 nM
same,Activity,KB-V1/Vbl,Dose-dependent effect
same,IC50,[3],1600 nM
same,Activity,MCF7/Topo,Dose-dependent effect
same,IC50,[5],2300 nM
same,Activity,U-87MG ATCC [6],Dose-dependent effect
